Measurements taken from patent publication US7176320B2, “Benzimidazole derivative” (Teijin Limited, priority 2000, dated 2007).

Experiments:
[1] = target: T1, recombinant human mast cell chymase (Homo sapiens, UniProt P23946); experiment: Measurement of inhibition of enzyme activity of recombinant human mast cell chymase; type: biochemical; details: active human mast cell chymase, substrate succinyl-alanyl-histidyl-prolyl-phenylalanylparanitroanilide, 5 minutes at room temperature, absorbance 405 nm; read-out: inhibitory activity IC50
T1 construct: made in house; host or cells: insect cells (Th5) infected with recombinant baculovirus
T1 sequence (P23946 22-247): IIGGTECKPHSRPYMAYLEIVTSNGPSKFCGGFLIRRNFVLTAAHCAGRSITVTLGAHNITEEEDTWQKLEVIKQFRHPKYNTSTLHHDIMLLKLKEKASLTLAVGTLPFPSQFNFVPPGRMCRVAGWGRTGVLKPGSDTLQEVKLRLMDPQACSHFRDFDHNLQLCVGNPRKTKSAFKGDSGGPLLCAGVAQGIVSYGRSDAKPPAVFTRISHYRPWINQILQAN
Procedure: Recombinant human mast cell chymase was prepared in accordance with the report of Urata, et al. (Journal of Biological Chemistry, Vol. 266, p. 17173 (1991)). Namely, human mast cell chymase was purified by heparin sepharose (Pharmacia) from a culture supernatant of insect cells (Th5) infected with recombinant baculovirus containing cDNA coding for human mast cell chymase. Moreover, after activating in accordance with the report of Murakami, et al. (Journal of Biological Chemistry, Vol. 270, p. 2218 (1995)), the human mast cell chymase was purified with heparin sepharose to obtain active human mast cell chymase.
After adding 2 μl of DMSO solution containing a compound of the present invention to 50 μl of Buffer A (0.5–3.0 M NaCl, 50 mM Tris-HCl, pH 8.0) containing 1–5 ng of the active human mast cell chymase obtained in Example 16, 50 μl of Buffer A containing 0.5 mM succinyl-alanyl-histidyl-prolyl-phenylalanylparanitroanilide (Bacchem) as substrate were added and allowed to react for 5 minutes at room temperature. The changes over time in absorbance at 405 nm were measured to investigate inhibitory activity.

[2] = In vitro metabolism test using liver microsomes (Ms); type: in vitro ADME; details: liver microsomes 1.0 mg/mL, substrate 5.0 μM, NADPH 1.0 mM, 37° C.; for MR (metabolic rate at its maximum): pH 7.4
Procedure: The metabolic rate was determined from the decrease in the amount of the unchanged form at each reaction time and the reaction time based on assigning a value of 100% to the amount of the unchanged form at the initial concentration (reaction time: 0 minutes), and the metabolic rate at the time the metabolic rate reached a maximum was evaluated as the MR value. M=(substrate concentration at reaction time: 0 min.−substrate concentration after reaction)÷reaction time÷protein concentration (nmol/min./mg protein)

[3] = Measurement of blood concentration during administration by intragastric forced feeding to rats; type: in vivo, rat; details: male SD rats, fasting, 30 mg/kg, serum
Procedure: The compounds indicated with the above compound nos. 39, 52 and 244 were administered by intragastric forced feeding to male SD rats while fasting at a dose of 30 mg/kg, after which blood samples were collected immediately after administration and at 30 minutes and 1, 2 and 4 hours after administration. Following collection of blood samples, where samples were immediately separated into serum components, the compound of the present invention was extracted by ordinary solid phase extraction methods, and the resulting samples were analyzed by HPLC using an ODS column (32% acetonitrile-water-0.05% TFA was used for the mobile phase for compound nos. 52 and 244, while 47% acetonitrile-water-10 mM ammonium acetate buffer (pH 4.0) was used for the mobile phase for compound no. 39) followed by measurement of the amount of the unchanged form.

[4] = 30 minutes after administration

IC50 [1] [µM] | Percentage of substrate remaining after 30 min. [2] [%] | MR (metabolic rate at its maximum) [2] [nmol/min./mg protein] | Structure (SMILES) | further results
0.01 to 0.1 | 60.3 | 0.260 | Cn1cc(Cn2c(SCCCC(=O)O)nc3ccccc32)c2ccccc21 [Compound No. 34, 4-(1-((1-methylindole-3-yl)methyl)benzimidazole-2-ylthio)butanoic acid] | –
0.001 to 0.01 | 80.1 | 0 | Cc1cccc2c1c(Cn1c(SCCCC(=O)O)nc3ccccc31)cn2C [Compound No. 39] | concentration at 30 min ([3]; rat, oral, 30 minutes after administration, read-out: Blood concentration of the unchanged form After 30 min.): 16.1 µg/mL; concentration at 4 h ([3]; rat, oral, 4 hours after administration, read-out: Blood concentration of the unchanged form After 4 hr.): 6.3 µg/mL
– | 47.5 | 0.331 | O=C(O)CCCSc1nc2ccccc2n1Cc1csc2ccccc12 [Compound No. 52] | Blood concentration of the unchanged form After 30 min. [3, 4]: 60.5 µg/mL; Blood concentration of the unchanged form After 4 hr. ([3]; 4 hours after administration): 12.7 µg/mL
– | 41.2 | 0.111 | Cc1ccc2scc(Cn3c(SCCCC(=O)O)nc4ccccc43)c2c1 [Compound No. 56] | –
0.01 to 0.1 | 55.2 | 0.097 | COc1ccc2c(c1)nc(SCCCC(=O)O)n2Cc1cn(C)c2cccc(C)c12 [Compound No. 135] | –
0.001 to 0.01 | – | – | COc1ccc2c(c1)nc(SCCCC(=O)O)n2Cc1csc2ccccc12 [Compound No. 148, 4-(1-((benzothiophene-3-yl)methyl)-5-methoxybenzimidazole-2-ylthio)butanoic acid] | –
0.01 to 0.1 | – | – | COc1ccc2c(c1)nc(SCCCC(=O)O)n2Cc1csc2ccc(C)cc12 [Compound No. 152, 4-(1-((5-methylbenzothiophene-3-yl)methyl)-5-methoxybenzimidazole-2-ylthio)butanoic acid] | –
0.001 to 0.01 | – | – | COc1ccc2c(c1)nc(SCCCC(=O)O)n2Cc1csc2cccc(C)c12 [Compound No. 154, 4-(1-((4-methylbenzothiophene-3-yl)methyl)-5-methoxybenzimidazole-2-ylthio)butanoic acid] | –
– | 57.9 | 0.211 | N#Cc1ccc2c(c1)nc(SCCCC(=O)O)n2Cc1csc2ccccc12 [Compound No. 244] | Blood concentration of the unchanged form After 30 min. [3, 4]: 16.5 µg/mL; Blood concentration of the unchanged form After 4 hr. ([3]; 4 hours after administration): 8.9 µg/mL
0.01 to 0.1 | – | – | Cc1ccc2nc(SCCCC(=O)O)n(Cc3csc4ccccc34)c2c1 [Compound No. 436] | –
0.001 to 0.01 | 52.9 | 0.102 | Cc1cc2nc(SCCCC(=O)O)n(Cc3cn(C)c4cccc(C)c34)c2cc1C [Compound No. 519] | –
0.001 to 0.01 | 36.2 | 0.277 | Cc1cc2nc(SCCCC(=O)O)n(Cc3csc4ccccc34)c2cc1C [Compound No. 532] | –
0.001 to 0.01 | – | – | COc1ccc2nc(SCCCC(=O)O)n(Cc3csc4ccc(C)cc34)c2c1 [Compound No. 1112, 4-(1-((5-methylbenzothiophene-3-yl)methyl)-6-methoxybenzimidazole-2-ylthio)butanoic acid] | –
0.001 to 0.01 | – | – | COc1ccc2nc(SCCCC(=O)O)n(Cc3csc4cccc(C)c34)c2c1 [Compound No. 1114, 4-(1-((4-methylbenzothiophene-3-yl)methyl)-6-methoxybenzimidazole-2-ylthio)butanoic acid] | –
– | 48.7 | 0.087 | Cc1cc2nc(SCCCC(=O)O)n(Cc3cn(C)c4ccccc34)c2cc1C [compound 514] | –
– | 56.3 | 0.131 | Cc1ccc2scc(Cn3c(SCCCC(=O)O)nc4cc(C)c(C)cc43)c2c1 [compound 536] | –
0.01 to 0.1 | – | – | O=C(O)CCCSc1nc2cc(Cl)c(Cl)cc2n1Cc1csc2ccccc12 [compound 628] | –
